The source of these data is patent US20070191345A1, “3-((Hetero)arylsulfonyl)-8-'(aminoalkyl)oxyquinolines as 5-ht6 receptor antagonists for the treatment of cns disorders” (GLAXO GROUP LIMITED, priority 2004, published 2007).

Where a name gives a salt, the structure may show the parent alone. Read-outs that look alike come from different tables or passages of the source.

This assay addresses T1, human cloned 5-HT6 receptors (Homo sapiens, UniProt P50406).
T1 construct: expressed in transfected cells; host or cells: HeLa cells expressing the cloned 5-HT6 receptor (washed membranes)
As to the kind of experiment: Cyclase assay (cAMP production in washed membranes of HeLa 5HT6 cells, 5-HT stimulated). The assay is classed as biochemical. As for the experimental part: Compounds of the invention may be tested for in vitro biological activity in accordance with the following cyclase assay:
0.5 μl of test compound in 100% dimethylsulfoxide (DMSO) was added to a white, solid 384 well assay plate (for dose response measurements the top of the concentration range is 7.5 μM final). 10 μl of washed membranes of HeLa 5HT6 cells (for preparation see WO 98/27081) in basic buffer (50 mM HEPES pH 7.4 (KOH), 10 mM MgCl2, 100 mM NaCl, 1 μl/ml 3-isobutyl-1-methylxanthine (IBMX) (Sigma-Aldrich)) was added to all wells followed by 10 μl 2×ATP buffer (100 μl/ml ATP and 1 μl/ml 3-Isobutyl-1-methylxanthine (IBMX) (Sigma-Aldrich)) with 5-HT (at a concentration equivalent to a dose response of 4×EC50). The resultant mixture was then incubated at room temperature for 30-45 minutes to allow cAMP production.
cAMP production was then measured using the DiscoveRx™ HitHunter™ chemiluminescence cAMP assay kit (DiscoveRx Corporation, 42501 Albrae Street, Fremont, Calif. 94538; Product Code: 90-0004L) or any other suitable cAMP measurement assay.
IC50 values were estimated from arbitrary designated unit (ADU) measurements from a Perkin Elmer Viewlux instrument using a four parameter logistic curve fit within EXCEL (Bowen, W. P. and Jerman, J. C. (1995), Nonlinear regression using spreadsheets. Trends in Pharmacol. Sci., 16, 413-417). Functional Ki values were calculated using the method of Cheng, Y. C. and Prussof, W. H. (Biochemical Pharmacol (1973) 22 3099-3108). pIC50 and fpKi are the negative log10 of the molar IC50 and functional Ki respectively.
(In general: Cyclic AMP is a second messenger, typically raised through Gs and lowered through Gi signalling.)

[1] abbreviates: membranes of HeLa 5HT6 cells, 5-HT at 4×EC50, functional Ki calculated by Cheng-Prusoff from IC50, read-out: fpKi (functional pKi, antagonist potency for the 5-HT6 receptor) (converted).

T1 sequence (P50406 whole entry): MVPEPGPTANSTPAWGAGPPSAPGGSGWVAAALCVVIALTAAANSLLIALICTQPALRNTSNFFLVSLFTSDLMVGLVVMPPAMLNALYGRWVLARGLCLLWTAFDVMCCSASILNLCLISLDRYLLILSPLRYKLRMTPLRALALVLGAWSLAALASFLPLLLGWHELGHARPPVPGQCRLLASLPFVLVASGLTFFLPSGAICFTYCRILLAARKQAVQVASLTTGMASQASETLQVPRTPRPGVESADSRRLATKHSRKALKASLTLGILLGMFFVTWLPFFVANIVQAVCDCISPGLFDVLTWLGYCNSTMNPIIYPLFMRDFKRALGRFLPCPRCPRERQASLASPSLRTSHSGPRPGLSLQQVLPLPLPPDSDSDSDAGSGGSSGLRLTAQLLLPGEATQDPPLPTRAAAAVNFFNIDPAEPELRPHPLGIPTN

With `CN(C)CCOc1cccc2cc(S(=O)(=O)c3ccccc3)cnc12` [Example E1b, [2-(3-Phenylsulfonylquinoline-8-yloxy)ethyl]dimethylamine, hydrochloride], the Ki under setting [1] is less than 10 nM.

Regarding `CN1CCC[C@H]1COc1cccc2cc(S(=O)(=O)c3ccccc3)cnc12` [Example E2b, 8-({[(2S)-1-Methyl-2-pyrrolidinyl]methyl}oxy)-3-(phenylsulfonyl) quinoline, hydrochloride], the Ki under setting [1] is less than 10 nM.

Turning to `O=S(=O)(c1ccccc1)c1cnc2c(OC[C@@H]3CCCN3)cccc2c1` [Example E3, 3-(Phenylsulfonyl)-8-{[(2S)-2-pyrrolidinylmethyl]oxy}quinoline, hydrochloride], under setting [1], the Ki was less than 10 nM.

On to `O=S(=O)(c1ccccc1)c1cnc2c(OCCN3CCCC3)cccc2c1` [Example E4, 3-(Phenylsulfonyl)-8-{[2-(1-pyrrolidinyl)ethyl]oxy}quinoline, hydrochloride], for which the Ki under setting [1] is less than 10 nM.

In the case of `O=S(=O)(c1ccccc1)c1cnc2c(O[C@@H]3CCNC3)cccc2c1` [Example E5, 3-(Phenylsulfonyl)-8-[(3R)-3-pyrrolidinyloxy]quinoline, hydrochloride], the Ki under setting [1] was less than 10 nM.

Consider `CC(Oc1cccc2cc(S(=O)(=O)c3ccccc3)cnc12)C(C)N(C)C` (stereo not drawn) [Example E6, Dimethyl(1-methyl-2-{[(3-(phenylsulfonyl)-8-quinolinyl]oxy}propyl)amine, hydrochloride], for which the Ki under setting [1] was less than 10 nM.

In the case of `O=S(=O)(c1ccccc1)c1cnc2c(OC[C@H]3CCCN3)cccc2c1` [Example E7, 3-(Phenylsulfonyl)-8-{[(2R)-2-pyrrolidinylmethyl]oxy}quinoline, hydrochloride], under setting [1], the Ki is less than 10 nM.

In the case of `O=S(=O)(c1ccccc1)c1cnc2c(OC3CCCNC3)cccc2c1` (stereo not drawn) [Example E15, 3-(Phenylsulfonyl)-8-(3-piperidinyloxy) quinoline, hydrochloride], the Ki under setting [1] was less than 10 nM.

For `CN1CC[C@@H](Oc2cccc3cc(S(=O)(=O)c4ccccc4)cnc23)C1` [Example E17, 8-[[(3R)-1-Methyl-3-pyrrolidinyl]oxy}-3-(phenylsulfonyl) quinoline, hydrochloride], the Ki under setting [1] is less than 10 nM.

`O=S(=O)(c1ccccc1)c1cnc2c(OCC3CC4CCN3CC4)cccc2c1` (stereo not drawn) [Example E22, 8-[(1-Azabicyclo[2.2.2]oct-2-ylmethyl)oxy]-3-(phenylsulfonyl) quinoline, hydrochloride] came in with a Ki of less than 10 nM.

As for `CN1CCCC(Oc2cccc3cc(S(=O)(=O)c4ccccc4)cnc23)C1` (stereo not drawn) [Example E23, 8-[(1-Methyl-3-piperidinyl)oxy]-3-(phenylsulfonyl) quinoline, hydrochloride], under setting [1], the Ki was less than 10 nM.

With `O=S(=O)(c1ccccc1)c1cnc2c(OCC3COCCN3)cccc2c1` (stereo not drawn) [Example E24, 8-[(3-Morpholinylmethyl)oxy]-3-(phenylsulfonyl) quinoline, hydrochloride], the Ki under setting [1] was less than 10 nM.
